The subject of one assay is PBMCs. Put plainly: CTG (CellTiter-Glo) viability assay of compound-treated LPS and nigericin stimulated PBMCs. The assay is classed as cell-based, human. The following applies: Homo sapiens, PBMC. In short, it runs like this: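 Human PBMCs primed with 100 ng/mL LPS for 3 h, pre-incubated 30 min with compound (0.00017–10 uM) in FBS-free medium, then stimulated with 10 μM nigericin for 1.5 h. Viability read by CellTiter-Glo ATP luminescence as a cytotoxicity counter-screen.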
A general note: Cellular ATP, detected with luciferase, serves as a proxy for viable cell number.

A further assay concerns TNFα. Description: TNFα levels of LPS and nigericin stimulated PBMCs (counter-screen). The assay is classed as cell-based. The following applies: Homo sapiens, PBMC. Here is the method: Human peripheral blood mononuclear cells (PBMCs), consisting of lymphocytes (T, B and NK cells), monocytes and dendritic cells, are freshly isolated from human peripheral blood from healthy donors. Cells are obtained through an IRB approved donor program by iXCells Biotechnologies where all the donors are tested for bacterial and viral infections. Cells are purified from peripheral blood using ficoll gradient centrifugation.
Fresh or cryopreserved PMBCs are seeded in V-bottom 96-well plate at 0.5-1×10^5 cells per well and incubated overnight at 37° C. with 5% CO2 in RPMI 1640 medium with GlutaMAX supplement, 4.5 g/L D-glucose, 10% Fetal Bovine Serum (FBS), […] Sodium Pyruvate, 1% Penicillin/Streptomycin, 10 mM HEPES and 0.05 mM of […]. Freshly isolated or cryopreserved KCs cells are seeded in flat-bottom 96-well plates at 0.6-1.5×10^5 cells/well and incubated overnight at 37° C., 5% CO2 in RPMI 1640 Medium with GlutaMAX supplement, FBS, 1% Penicillin/Streptomycin and 10 mM HEPES. The following day, the cells are primed with 100 ng/mL of lipopolysaccharides (LPS; Sigma Aldrich) in FBS-free RPMI 1640 for 3 h. After the priming step, the media is removed and PBMCs are pre-incubated with serial concentrations of test compounds (0.00017-10 uM) or vehicle (DMSO) for 30 min in FBS-free media prior to addition of the NLRP3 activator. Cells are then stimulated with 10 μM Nigericin (Sigma Aldrich; InvivoGen) for 1.5 h. Plates were centrifuged at 1,500 rpm for 3 minutes to pellet cells and supernatant was transferred into new plates for subsequent experiments.
For ELISA assays cells are seeded into 96-well plates. Post study, supernatants are removed and the levels of mature IL-1β, IL18 and TNFα (Quantikine ELISA, R&D systems) are measured in cell conditioned media by ELISA according to manufacturer's instructions.
TNFα levels of LPS and nigericin stimulated cells are measured by HTRF assay (Cisbio, Bedford, Mass.). […] Measuring TNFalpha production also serves as a technical counter-screen to eliminate compounds that interfere with the HTRF reagents. Thus compounds that inhibit both IL-1β and TNFα levels are triaged for either being non-selective for inflammasome or interfering with the HTRF readout.
Background: Counterscreens check selectivity or assay interference.

For a further assay, the target named is T1, NLRP3 inflammasome (Homo sapiens, UniProt Q96P20).
T1 construct: freshly isolated from human peripheral blood from healthy donors; StemCells Technologies; host or cells: primary human PBMCs
T1 sequence (Q96P20 whole entry): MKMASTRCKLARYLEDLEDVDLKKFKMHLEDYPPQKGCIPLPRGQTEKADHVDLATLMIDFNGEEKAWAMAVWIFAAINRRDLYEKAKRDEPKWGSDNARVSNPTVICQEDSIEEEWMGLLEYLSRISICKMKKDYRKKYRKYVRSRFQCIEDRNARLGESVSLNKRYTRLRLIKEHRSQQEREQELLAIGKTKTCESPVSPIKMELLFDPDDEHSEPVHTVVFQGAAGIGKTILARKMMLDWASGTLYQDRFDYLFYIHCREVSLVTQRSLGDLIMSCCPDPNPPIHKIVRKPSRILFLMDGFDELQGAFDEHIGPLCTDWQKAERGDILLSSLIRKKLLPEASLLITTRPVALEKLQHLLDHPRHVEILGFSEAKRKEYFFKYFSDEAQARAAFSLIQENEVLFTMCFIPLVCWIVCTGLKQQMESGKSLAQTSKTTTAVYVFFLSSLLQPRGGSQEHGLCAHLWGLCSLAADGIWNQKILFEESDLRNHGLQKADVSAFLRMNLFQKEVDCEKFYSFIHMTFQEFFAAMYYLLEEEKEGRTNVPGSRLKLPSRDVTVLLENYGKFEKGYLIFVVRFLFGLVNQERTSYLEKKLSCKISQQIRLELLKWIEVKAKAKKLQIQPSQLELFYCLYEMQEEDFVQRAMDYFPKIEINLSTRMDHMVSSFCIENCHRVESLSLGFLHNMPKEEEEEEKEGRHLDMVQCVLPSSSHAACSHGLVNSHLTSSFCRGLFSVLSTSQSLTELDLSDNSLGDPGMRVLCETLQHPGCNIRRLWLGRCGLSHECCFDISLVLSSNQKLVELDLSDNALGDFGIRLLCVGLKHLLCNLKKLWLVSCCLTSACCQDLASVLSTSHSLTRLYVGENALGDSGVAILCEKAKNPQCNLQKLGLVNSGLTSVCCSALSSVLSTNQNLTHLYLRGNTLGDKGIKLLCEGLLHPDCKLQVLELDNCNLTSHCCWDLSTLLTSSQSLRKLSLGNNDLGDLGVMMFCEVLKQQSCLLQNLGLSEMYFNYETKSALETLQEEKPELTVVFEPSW
Description: NLRP3 inflammasome activation assay in LPS-primed, nigericin-stimulated PBMCs, IL-1β release. The assay is classed as cell-based. The conditions noted are these: 10 μM nigericin. The essentials:
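Fresh or cryopreserved human PBMCs primed with 100 ng/mL LPS for 3 h, pre-incubated 30 min with compound (0.00017-10 uM, or 2-fold 20-point series from 40 μM), then stimulated with 10 μM nigericin for 1.5 h at 37 °C. Supernatant IL-1β measured by ELISA or by HTRF (665/620 ratio).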

The test system of another assay is THP-1 ASC-GFP cells. Put plainly: THP-1 ASC-GFP speck assay (NLRP3 inflammasome activation, nigericin). It counts as cell-based. The conditions noted are these: THP1-ASC-GFP; PMA-differentiated, LPS primed, 10 μM nigericin. In short, it runs like this: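 PMA-differentiated (500 ng/ml, overnight) THP-1 ASC-GFP cells primed with LPS 1 μg/mL for 3 h, pre-treated 30 min with compound (20-point, 2-fold from 40 μM), then nigericin 10 μM for 90 min. After fixation, imaging gives % cells with ASC-GFP specks against Hoechst-counted nuclei.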

Where [1] appears, read: LPS and nigericin stimulated cells, read-out: CTG pIC50 (converted).
Setting [2] is: LPS and nigericin stimulated cells, read-out: TNFa pIC50 (converted).
[3] abbreviates: LPS 100 ng/mL priming, read-out: IL-1B pIC50 (converted).
Setting [4] is: PBMC, LPS priming, read-out: PMBC IL-1β IC50.

SMILES strings stand for the structures. Like-named read-outs stand apart in the source and are kept apart here.

With `CC(C)c1ncc2c(c1NC(=O)NS(=O)(=O)c1cnn3c1OCCC3)CCC2` [drawing 422], the IC50 with PBMCs (setting [1]) was above 10 µM; in the assay with TNFα (setting [2]) it was above 10 µM; on NLRP3 inflammasome (setting [3]), above 10000 nM.

As to `CC(C)c1ncc2c(c1NC(=O)NS(=O)(=O)c1cnn3c1OCCC3)CCC2` [Example 55, N-((3-isopropyl-6,7-dihydro-5H-cyclopenta[c]pyridin-4-yl)carbamoyl)-6,7-dihydro-5H-pyrazolo[5,1-b][1,3]oxazine-3-sulfonamide], the IC50 was above 10 µM with PBMCs (read-out: PMBC CTG IC50 (μM)), above 10 µM in the assay with TNFα (read-out: PMBC TNFα IC50 (μM)) and above 10000 nM on NLRP3 inflammasome (setting [4]).

Turning to `CNc1cc(C(C)C)c(NC(=O)NS(=O)(=O)c2cnn3c2OCCC3)c(C(C)C)n1` [Example 53, N-((2,4-diisopropyl-6-(methylamino)pyridin-3-yl)carbamoyl)-6,7-dihydro-5H-pyrazolo[5,1-b][1,3]oxazine-3-sulfonamide], the IC50 in the assay with THP-1 ASC-GFP cells was 3300 nM; in the assay with PBMCs (read-out: PMBC CTG IC50) it was 0.88 µM; in the assay with TNFα (read-out: PMBC TNFα IC50), above 10 µM; on NLRP3 inflammasome (setting [4]), 3400 nM.

Turning to `CNc1cc(C(C)C)c(NC(=O)NS(=O)(=O)c2cnn3c2OCCC3)c(C(C)C)n1` [drawing 420], the IC50 with PBMCs (setting [1]) is 0.1 to 1 µM; in the assay on TNFα (setting [2]), above 10 µM; at NLRP3 inflammasome (setting [3]), 1000 to 10000 nM.

Take `Cc1cc(C(C)C)c(NC(=O)NS(=O)(=O)c2cnn3c2OCCC3)c(C(C)C)n1` [Example 48, N-((2,4-diisopropyl-6-methylpyridin-3-yl)carbamoyl)-6,7-dihydro-5H-pyrazolo[5,1-b][1,3]oxazine-3-sulfonamide]: the IC50 in the assay with THP-1 ASC-GFP cells is 2000 nM; in the assay with PBMCs (read-out: PMBC CTG IC50), 2.43 µM; in the assay on TNFα (read-out: PMBC TNFα IC50), above 10 µM; at NLRP3 inflammasome (setting [4]), 2470 nM.

For the compound `CC(C)NC(=O)NS(=O)(=O)c1cnn2c1OCC(CN)C2` (racemic) [Example 56, 6-(aminomethyl)-N-(isopropylcarbamoyl)-6,7-dihydro-5H-pyrazolo[5,1-b][1,3]oxazine-3-sulfonamide], the IC50 was above 10 µM in the assay on PBMCs (read-out: PMBC CTG IC50), above 10 µM in the assay with TNFα (read-out: PMBC TNFα IC50) and above 10000 nM on NLRP3 inflammasome (setting [4]).

Take `CO[C@@H]1COc2c(S(=O)(=O)NC(=O)Nc3c(C(C)C)nn(C)c3C(C)C)cnn2C1` [Example 38a, (S)—N-((3,5-diisopropyl-1-methyl-1H-pyrazol-4-yl)carbamoyl)-6-methoxy-6,7-dihydro-5H-pyrazolo[5,1-b][1,3]oxazine-3-sulfonamide]: the figures for the IC50 in the assay on THP-1 ASC-GFP cells, in the assay on PBMCs (read-out: PMBC CTG IC50) and at NLRP3 inflammasome (setting [4]) were 2500 nM, 0.68 µM and 1140 nM, respectively.

As to `COc1cc(C(C)C)c(NC(=O)NS(=O)(=O)c2cnn3c2OCCC3)c(C(C)C)n1` [Example 30, N-((2,4-diisopropyl-6-methoxypyridin-3-yl)carbamoyl)-6,7-dihydro-5H-pyrazolo[5,1-b][1,3]oxazine-3-sulfonamide], the values for the IC50 in the assay on THP-1 ASC-GFP cells, in the assay with PBMCs (read-out: PMBC CTG IC50) and on NLRP3 inflammasome (setting [4]) were 1800 nM, 0.73 µM and 850 nM, respectively.

Turning to `Cc1cc(C(C)C)c(NC(=O)NS(=O)(=O)c2cnn3c2OCCC3)c(C(C)C)n1` [drawing 415], the figures for the IC50 in the assay with PBMCs (setting [1]), in the assay on TNFα (setting [2]) and on NLRP3 inflammasome (setting [3]) were 1 to 10 µM, above 10 µM and 1000 to 10000 nM, respectively.

`CCOc1cc(C(C)C)c(NC(=O)NS(=O)(=O)c2cnn3c2OCCC3)c(C(C)C)n1` [Example 50, N-((6-ethoxy-2,4-diisopropylpyridin-3-yl)carbamoyl)-6,7-dihydro-5H-pyrazolo[5,1-b][1,3]oxazine-3-sulfonamide]: the IC50 with THP-1 ASC-GFP cells worked out at 4700 nM; in the assay on PBMCs (read-out: PMBC CTG IC50), 1.18 µM; at NLRP3 inflammasome (setting [4]), 2810 nM.

As for `COc1cc(C(C)C)c(NC(=O)NS(=O)(=O)c2cnn3c2OC[C@@H](N(C)C)C3)c(C(C)C)n1` [drawing 419], the IC50 in the assay on PBMCs (setting [1]) was 0.1 to 1 µM; with TNFα (setting [2]) it was above 10 µM; at NLRP3 inflammasome (setting [3]), 100 to 1000 nM.

As to `Cc1onc(-c2ccccc2)c1NC(=O)NS(=O)(=O)c1cnn2c1OCCC2` [Example 8, N-((5-methyl-3-phenylisoxazol-4-yl)carbamoyl)-6,7-dihydro-5H-pyrazolo[5,1-b][1,3]oxazine-3-sulfonamide], the IC50 in the assay with THP-1 ASC-GFP cells was above 20000 nM; in the assay with PBMCs (read-out: PMBC CTG IC50), above 10 µM; at NLRP3 inflammasome (setting [4]), above 10000 nM.

For the compound `CC(C)NC(=O)NS(=O)(=O)c1cnn2c1OCC(CN)C2` (centres unmarked), the IC50 in the assay with PBMCs (setting [1]) is above 10 µM; in the assay with TNFα (setting [2]), above 10 µM; on NLRP3 inflammasome (setting [3]), above 10000 nM.

`COc1cc(C(C)C)c(NC(=O)NS(=O)(=O)c2cnn3c2OC[C@@H](N(C)C)C3)c(C(C)C)n1` [Example 52a, (S)—N-((2,4-diisopropyl-6-methoxypyridin-3-yl)carbamoyl)-6-(dimethylamino)-6,7-dihydro-5H-pyrazolo[5,1-b][1,3]oxazine-3-sulfonamide]: the IC50 in the assay on THP-1 ASC-GFP cells is 500 nM; with PBMCs (read-out: PMBC CTG IC50), 0.39 µM; with TNFα (read-out: PMBC TNFα IC50), above 10 µM; on NLRP3 inflammasome (setting [4]), 790 nM.

Turning to `CC(C)c1cc(C#N)nc(C(C)C)c1NC(=O)NS(=O)(=O)c1cnn2c1OCCC2` [Example 49, N-((6-cyano-2,4-diisopropylpyridin-3-yl)carbamoyl)-6,7-dihydro-5H-pyrazolo[5,1-b][1,3]oxazine-3-sulfonamide], the IC50 in the assay on THP-1 ASC-GFP cells was found to be 2500 nM; in the assay with PBMCs (read-out: PMBC CTG IC50), 0.56 µM; at NLRP3 inflammasome (setting [4]), 1250 nM.

On to `COc1cc(C(C)C)c(NC(=O)NS(=O)(=O)c2cnn3c2OCC(C)(C)C3)c(C(C)C)n1` [Example 47, N-((2,4-diisopropyl-6-methoxypyridin-3-yl)carbamoyl)-6,6-dimethyl-6,7-dihydro-5H-pyrazolo[5,1-b][1,3]oxazine-3-sulfonamide], for which the IC50 is 8300 nM in the assay with THP-1 ASC-GFP cells, 1.16 µM in the assay with PBMCs (read-out: PMBC CTG IC50), above 10 µM with TNFα (read-out: PMBC TNFα IC50) and 2010 nM on NLRP3 inflammasome (setting [4]).

As for `COc1cc(C(C)C)c(NC(=O)NS(=O)(=O)c2cnn3c2OCC(C)(C)C3)c(C(C)C)n1` [drawing 414], the IC50 in the assay on PBMCs (setting [1]) was 1 to 10 µM; with TNFα (setting [2]), above 10 µM; on NLRP3 inflammasome (setting [3]), 1000 to 10000 nM.

Take `CC(C)c1cc(C(F)(F)F)nc(C(C)C)c1NC(=O)NS(=O)(=O)c1cnn2c1OCCC2` [Example 54, N-((2,4-diisopropyl-6-(trifluoromethyl)pyridin-3-yl)carbamoyl)-6,7-dihydro-5H-pyrazolo[5,1-b][1,3]oxazine-3-sulfonamide]: the IC50 in the assay with THP-1 ASC-GFP cells is 620 nM; in the assay with PBMCs (read-out: PMBC CTG IC50), 0.016 µM; in the assay on TNFα (read-out: PMBC TNFα IC50), above 10 µM; on NLRP3 inflammasome (setting [4]) it was 320 nM.

Turning to `CC(C)c1cc(C(F)(F)F)nc(C(C)C)c1NC(=O)NS(=O)(=O)c1cnn2c1OCCC2` [drawing 421], the figures for the IC50 in the assay with PBMCs (setting [1]), with TNFα (setting [2]) and at NLRP3 inflammasome (setting [3]) were below 0.1 µM, above 10 µM and 100 to 1000 nM, respectively.

With `CCn1nc(C(C)C)c(NC(=O)NS(=O)(=O)c2cnn3c2OCCC3)c1C(C)C` [Example 34, N-((1-ethyl-3,5-diisopropyl-1H-pyrazol-4-yl)carbamoyl)-6,7-dihydro-5H-pyrazolo[5,1-b][1,3]oxazine-3-sulfonamide], the IC50 in the assay on THP-1 ASC-GFP cells worked out at 3700 nM; in the assay on PBMCs (read-out: PMBC CTG IC50) it was 1.98 µM; on NLRP3 inflammasome (setting [4]), 3190 nM.
